A word on the IC50: it is the concentration that gives 50% inhibition. A lower IC50 goes with greater potency.

For this experiment, the target named is ASK1 kinase (Homo sapiens (Human), UniProt Q99683). The experiment is described as follows: HTRF KinEASE assay of ASK1 kinase inhibition. The format is biochemical. As to conditions: HTRF KinEASE-STK TR-FRET; 5 nM ASK1, 1 uM STK3 peptide substrate, 100 uM ATP, 3 hours. How it is done: The ability (IC50) of compounds to inhibit ASK1 kinase activity was determined by HTRF® KinEASE™ Assay System.
Sequence of ASK1 kinase (Q99683 whole entry): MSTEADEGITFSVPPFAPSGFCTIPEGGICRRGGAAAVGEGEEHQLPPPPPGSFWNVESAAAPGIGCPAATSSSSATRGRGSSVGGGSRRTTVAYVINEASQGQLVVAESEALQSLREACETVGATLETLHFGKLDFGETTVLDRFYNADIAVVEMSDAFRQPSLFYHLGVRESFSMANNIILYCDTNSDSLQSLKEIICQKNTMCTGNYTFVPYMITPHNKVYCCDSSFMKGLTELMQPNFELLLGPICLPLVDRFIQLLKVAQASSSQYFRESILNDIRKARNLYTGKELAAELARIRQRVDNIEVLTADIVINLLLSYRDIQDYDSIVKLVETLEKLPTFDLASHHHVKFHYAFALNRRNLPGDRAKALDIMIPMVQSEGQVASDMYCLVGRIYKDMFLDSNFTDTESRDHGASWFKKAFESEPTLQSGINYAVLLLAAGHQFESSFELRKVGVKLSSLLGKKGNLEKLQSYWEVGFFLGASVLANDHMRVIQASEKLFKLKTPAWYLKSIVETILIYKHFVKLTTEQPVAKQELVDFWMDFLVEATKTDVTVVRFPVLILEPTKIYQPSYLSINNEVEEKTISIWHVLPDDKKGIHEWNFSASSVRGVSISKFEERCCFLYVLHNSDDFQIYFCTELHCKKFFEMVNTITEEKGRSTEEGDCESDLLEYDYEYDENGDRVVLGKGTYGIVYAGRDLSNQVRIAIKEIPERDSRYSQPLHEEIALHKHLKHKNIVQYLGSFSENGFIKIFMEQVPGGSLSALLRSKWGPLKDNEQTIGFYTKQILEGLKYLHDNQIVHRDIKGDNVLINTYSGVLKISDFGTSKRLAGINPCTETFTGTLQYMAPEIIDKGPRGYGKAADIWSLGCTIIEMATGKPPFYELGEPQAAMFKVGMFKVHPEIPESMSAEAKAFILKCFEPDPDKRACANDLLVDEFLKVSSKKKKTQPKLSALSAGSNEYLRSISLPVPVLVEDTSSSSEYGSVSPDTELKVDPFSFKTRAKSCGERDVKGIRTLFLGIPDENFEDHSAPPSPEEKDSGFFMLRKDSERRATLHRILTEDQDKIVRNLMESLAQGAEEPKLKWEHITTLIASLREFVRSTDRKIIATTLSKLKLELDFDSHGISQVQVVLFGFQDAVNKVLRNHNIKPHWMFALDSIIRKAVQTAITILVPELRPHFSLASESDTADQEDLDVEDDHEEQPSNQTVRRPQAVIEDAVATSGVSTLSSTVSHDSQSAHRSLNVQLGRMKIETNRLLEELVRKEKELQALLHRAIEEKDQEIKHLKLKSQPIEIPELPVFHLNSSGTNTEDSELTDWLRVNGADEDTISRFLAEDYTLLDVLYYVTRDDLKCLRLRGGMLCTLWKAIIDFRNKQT
ASK1 was purchased from Thermofisher (Catalogue #PV4011), ATP was purchased from Sigma (Catalogue #A7699), HTRF® KinEASE™ Assay System was obtained from Cisbio (Bedford, Mass.). ½ Area plate was purchased from Perkin Elmer (Catalogue # #6005560). HTRF® KinEASE™-STK is a generic method for measuring serine/threonine kinase activities using a time-resolved fluorescence resonance energy transfer (TR-FRET) immunoassay. The IC50 value for each compound was determined in the presence of compound (various concentration from 0 to 10 μM) and a fixed amount of ATP and peptide substrates. The test compound, 1 uM STK3 peptide substrate, and 5 nM of ASK1 kinase are incubated with kinase reaction buffer containing 50 mM HEPES pH 7.5, 0.01% BRIJ-35, 10 mM MgCl2, and 1 mM EGTA for 30 minutes. 100 uM ATP is added to start kinase reaction and incubated for 3 hours. The STK3-antibody labeled with Eu^3+-Cryptate and 125 nM streptavidin-XL665 are mixed in a single addition with stop reagents provided by the Cisbio kit used to stop the kinase reaction. Fluorescence is detected using an Envision Multilabeled 2014 reader from PerkinElmer. The Fluorescence is measured at 615 nm (Cryptate) and 665 nm (XL665) and a ratio of 665 nm/615 nm is calculated for each well. The resulting TR-FRET is proportional to the phosphorylation level. Staurosporine was used as the positive control. IC50 was determined by XLfit 5.3.
By using above method, the inhibition of ASK1 was tested for the compound of formula (I). IC50 ranges are as follows: A<1 nM; 1 nM<B<10 nM; C>10 nM.
On the technique in general: TR-FRET usually uses a lanthanide donor and a delayed reading to cut background.
Take `Cc1cc(F)c(C(=O)Nc2cccc(-c3nncn3C(C)C)n2)cc1C1CC1C(=O)O` (centres unmarked) [Example 2, 2-(4-fluoro-5-((6-(4-isopropyl-4H-1,2,4-triazol-3-yl)pyridin-2-yl)carbamoyl)-2-methylphenyl)cyclopropane-1-carboxylic acid]: the IC50 was over 10 nM.
Then `Cc1cc(F)c(C(=O)Nc2cccc(-c3nncn3[C@H](C)CO)n2)cc1C1CC1C(=O)N1CCC(F)(F)C1` (some centres unmarked) [Example 24], with 1 to 10 nM; and `Cc1cnc(C(=O)Nc2cccc(-c3nncn3C(C)C)n2)cc1C1CC1NC(=O)OCC(F)(F)F` (centres unmarked) [Example 19], with over 10 nM; and `Cc1cc(F)c(C(=O)Nc2cccc(-c3nncn3C(C)C)n2)cc1C1CC1C(=O)N1CCC(F)(F)C1` (centres unmarked) [Example 12], with over 10 nM.
For `Cc1cc(F)c(C(=O)Nc2cccc(-c3nncn3[C@H](C)CO)n2)cc1C1CC1NC(=O)N(C)CCC(F)(F)F` (some centres unmarked) [Example 26], the IC50 fell in the range of 1 to 10 nM.
As for `Cc1cc(F)c(C(=O)Nc2cccc(-c3nncn3[C@H](C)CO)n2)cc1C1CC1NS(=O)(=O)CCC(F)(F)F` (some centres unmarked) [Example 27], the figure is 1 to 10 nM; as for `COc1cc(C)c(C2CC2NS(=O)(=O)N(C)C)cc1C(=O)Nc1cccc(-c2nncn2C(C)C)n1` (centres unmarked) [Example 20], 1 to 10 nM.
On to `COc1cc(C)c(C2CC2NC(=O)OCC(F)(F)F)cc1C(=O)Nc1cccc(-c2nncn2C(C)C)n1` (centres unmarked) [Example 17], for which the IC50 is 1 to 10 nM.
Take `Cc1cc(F)c(C(=O)Nc2cccc(-c3nncn3C(C)C)n2)cc1C1CC1NC(=O)OC(C)(C)C` (centres unmarked) [Example 4, tert-butyl (2-(4-fluoro-5-((6-(4-isopropyl-4H-1,2,4-triazol-3-yl)pyridin-2-yl)carbamoyl)-2-methylphenyl)cyclopropyl)carbamate]: the IC50 is 1 to 10 nM.
In turn, `COc1cc(C)c(C2CC2NS(=O)(=O)CCC(F)(F)F)cc1C(=O)Nc1cccc(-c2nncn2C(C)C)n1` (centres unmarked) [Example 21] registered an IC50 of 1 to 10 nM.
For the molecule `Cc1cc(F)c(C(=O)Nc2cccc(-c3nncn3C(C)C)n2)cc1C1CC1NS(=O)(=O)C1CC1` (centres unmarked) [Example 11], the IC50 is 1 to 10 nM.
Then `Cc1cc(F)c(C(=O)Nc2cccc(-c3nncn3C(C)C)n2)cc1C1CC1C(=O)NC1CC1` (centres unmarked) [Example 3, 5-(2-(cyclopropylcarbamoyl)cyclopropyl)-2-fluoro-N-(6-(4-isopropyl-4H-1,2,4-triazol-3-yl)pyridin-2-yl)-4-methylbenzamide], with over 10 nM.
In turn, `Cc1cc(F)c(C(=O)Nc2cccc(-c3nncn3C(C)C)n2)cc1C1CC1NS(=O)(=O)N(C)C` (centres unmarked) [Example 7, 5-(2-((N,N-dimethylsulfamoyl)amino)cyclopropyl)-2-fluoro-N-(6-(4-isopropyl-4H-1,2,4-triazol-3-yl)pyridin-2-yl)-4-methylbenzamide] displayed an IC50 of over 10 nM.
Then `COc1cc(C)c(C2CC2NC(=O)C(C)(C)C)cc1C(=O)Nc1cccc(-c2nncn2C(C)C)n1` (centres unmarked) [Example 23], with 1 to 10 nM.
With `Cc1cc(F)c(C(=O)Nc2cccc(-c3nncn3[C@H](C)CO)n2)cc1C1CC1NS(=O)(=O)N(C)C` (some centres unmarked) [Example 28], the IC50 is 1 to 10 nM.
With `CCOC(=O)C1CC1c1cc(C(=O)Nc2cccc(-c3nncn3C(C)C)n2)ncc1C` (centres unmarked) [Example 15], the IC50 lay in the range of 1 to 10 nM.
Then `Cc1cc(F)c(C(=O)Nc2cccc(-c3nncn3C(C)C)n2)cc1C1CC1NC(=O)N(C)CCC(F)(F)F` (centres unmarked) [Example 13], with over 10 nM; and `Cc1cnc(C(=O)Nc2cccc(-c3nnnn3[C@H](C)CO)n2)cc1C1CC(NC(=O)OC(C)(C)C)C1` (stereo partly drawn) [Example 9, tert-butyl (R)-(3-(2-((6-(1-(1-hydroxypropan-2-yl)-1H-tetrazol-5-yl)pyridin-2-yl)carbamoyl)-5-methylpyridin-4-yl)cyclobutyl)carbamate], with over 10 nM.
Then `COc1cc(C)c(C2CC2NC(=O)N(C)CCC(F)(F)F)cc1C(=O)Nc1cccc(-c2nncn2C(C)C)n1` (centres unmarked) [Example 18], with 1 to 10 nM; and `CCOC(=O)C1CC1c1cc(C(=O)Nc2cccc(-c3nncn3C(C)C)n2)c(F)cc1C` (centres unmarked) [Example 1, ethyl 2-(4-fluoro-5-((6-(4-isopropyl-4H-1,2,4-triazol-3-yl)pyridin-2-yl)carbamoyl)-2-methylphenyl)cyclopropane-1-carboxylate], with 1 to 10 nM.
On to `COc1cc(C)c(C2CC2C(=O)N2CCC(F)(F)C2)cc1C(=O)Nc1cccc(-c2nncn2C(C)C)n1` (centres unmarked) [Example 16], for which the concentration for half-maximal inhibition (IC50) fell in the range of 1 to 10 nM.
For `Cc1cc(F)c(C(=O)Nc2cccc(-c3nncn3[C@H](C)CO)n2)cc1C1CC1NC(=O)C(C)(C)C` (some centres unmarked) [Example 29], the IC50 was 1 to 10 nM.
Then `Cc1cc(F)c(C(=O)Nc2cccc(-c3nncn3C(C)C)n2)cc1C1CC1NC(=O)C(C)(C)C` (centres unmarked) [Example 14], with over 10 nM; and `COc1cc(C)c(C2CC2NC(=O)c2ccc(F)cc2)cc1C(=O)Nc1cccc(-c2nncn2C(C)C)n1` (centres unmarked) [Example 22], with 1 to 10 nM; and `Cc1cc(F)c(C(=O)Nc2cccc(-c3nncn3C(C)C)n2)cc1C1CC1NC(=O)c1ccc(F)cc1` (centres unmarked) [Example 6, 2-fluoro-5-(2-(4-fluorobenzamido)cyclopropyl)-N-(6-(4-isopropyl-4H-1,2,4-triazol-3-yl)pyridin-2-yl)-4-methylbenzamide], with over 10 nM.
For the molecule `Cc1cc(F)c(C(=O)Nc2cccc(-c3nncn3C(C)C)n2)cc1C1CC1NC(=O)OCC(F)(F)F` (centres unmarked) [Example 10], the IC50 fell in the range of 1 to 10 nM.
`Cc1cnc(C(=O)Nc2cccc(-c3nncn3C(C)C)n2)cc1C1CC1NC(=O)OC(C)(C)C` (centres unmarked) [Example 8, tert-butyl (2-(2-((6-(4-isopropyl-4H-1,2,4-triazol-3-yl)pyridin-2-yl)carbamoyl)-5-methylpyridin-4-yl)cyclopropyl)carbamate] displayed an IC50 of over 10 nM.
As for `Cc1cc(F)c(C(=O)Nc2cccc(-c3nncn3C(C)C)n2)cc1C1CC1NC(=O)N1CCC(F)(F)C1` (centres unmarked) [Example 5, 3,3-difluoro-N-(2-(4-fluoro-5-((6-(4-isopropyl-4H-1,2,4-triazol-3-yl)pyridin-2-yl)carbamoyl)-2-methylphenyl)cyclopropyl)pyrrolidine-1-carboxamide], the figure is over 10 nM; as for `Cc1cc(F)c(C(=O)Nc2cccc(-c3nncn3[C@H](C)CO)n2)cc1C1CC1NC(=O)OCC(F)(F)F` (some centres unmarked) [Example 25], over 10 nM.

The record behind these values is patent publication US10968199B2, “Cycloalkyl-containing apoptosis signal-regulating kinase 1 inhibitors and methods of use thereof” (ENANTA PHARMACEUTICALS, INC., priority 2018, dated 2021).
